Where two headings read alike, the source gives them in different places.
Columns and labels:
platelet = experiment: Blood platelet aggregation inhibiting effect (collagen-induced); assay type: cell-based, rabbits; settings: for inhibition at 100 µM: Oryctolagus cuniculus, Platelet, read-out: Blood platelet agg. inh.: percentage inhibition of platelet aggregation
Excerpt: Male rabbits (Japan original white strain 3.3 to 3.6 kg) were anesthetized with Thiopental sodium and blood was sampled from the carotid artery.

male mice = experiment: Analgesic effect: painful stretchings following intraperitoneal 0.7% acetic acid; settings: Mus musculus, po, read-out: Analgesic: percentage diminition of times of painful stretching
Method: Each sample was orally administered in the dosage of 100 mg/kg before injection of acetic acid.

thrombus = experiment: Inhibiting effect on thrombosis (by-pass between left juglar vein and right carotid artery, silk thread); assay type: in vivo, SD type male rates; settings: Rattus norvegicus, read-out: Thrombosis inh.: thrombosis inhibition rate
Method: The inhibiting effects of the samples of the invention on thrombosis were tested by the following test method.
A 0.5 ml of 50 μ/ml of the heparin physiological saline was added through the polyethylene tube before the first blood circulation. After the blood circulation for 15 minutes, the circulation was stopped in the middle of the tubing at artery side with a pinch cock.
Then, 0.2 ml of the heparin physiological saline was added to remove the blood coagulates on the tubing wall and another new polyethylene tubing filled with the heparin solution and containing a piece of new silk thread was attached between the venous and artery tubing ends.
The blood circulation was reestablished by opening the pinch cock. After 15 minutes, the wet weight of thrombus on the silk thread was similarly measured.
In the same manner, the third circulation was performed and wet weight of thrombus measured.
The amount of thrombus was given by the equation A. [formula] Each sample was suspended in an aqueous solution of sodium carboxymethyl cellulose and the oral dose of the suspension (100 mg/kg) was performed at 5 hours before the first blood circulation.
The amount of thrombus after the oral dose of the sample was calculated in the same manner as that of control circulations.
The thrombosis inhibition rate was given by the equation B. [formula]

hind paws of male rats = experiment: Anti-inflammatory effect: acute carragheenin edema method; assay type: in vivo; settings: for inhibition in vivo at 100 mg/kg: Rattus norvegicus, read-out: Anti-inf.: edema inhibition rate; for anti-inflammatory effect, inhibition rate (ED50), in words: rat, in vivo
Method: The edema was induced by subcutaneous injection of 1% carragheenin suspension in saline to the hind paws of male rats weighting 150 to 180 g. Each sample was orally given at the dosage of 100 mg/kg just before the inoculation of carragheenin.

[1] = 10^-4 mole, collagen inducer, rabbit PRP
[2] = 100 mg/kg oral, 5 hours before first blood circulation, rats
[3] = 100 mg/kg oral, carragheenin edema, male rats (Table 2)
[4] = 100 mg/kg oral, carragheenin edema, male rats (Table 2')

Row | Compound | inhibition in vivo at 100 mg/kg (male mice) [%] | inhibition at 100 µM (platelet; [1]) [%] | inhibition in vivo at 100 mg/kg (thrombus; [2]) [%] | inhibition in vivo at 100 mg/kg (hind paws of male rats; [3]) [%] | inhibition in vivo at 100 mg/kg (hind paws of male rats; [4]) [%] | other results
1 | COc1ccc(C(=O)C(=O)c2ccccc2)cc1 | 10.2 |  |  |  |  | inhibition at 100 µM (platelet): 20.1%; inhibition in vivo at 100 mg/kg (thrombus; po, 5 h): 18.3%; inhibition in vivo at 100 mg/kg (hind paws of male rats; po): 43.9%
2 | CCCCCCc1ccc(C(=O)c2ccc(C)cc2C)cc1 [Active ingredient No. 4] |  |  |  |  |  | Blood platelet agg. inh.: percentage inhibition of platelet aggregation (platelet; [1]): 20.5%
3 | CCCCCc1ccc(C(=O)c2ccccc2F)cc1 [Active ingredient No. 9, 2-Fluoro-4'-n-amyl-benzophenone] |  |  |  |  |  | anti-inflammatory effect, inhibition rate (ED50), in words (hind paws of male rats): especially high inhibition rate (ED50)
4 | Cc1cc(C)c(C(=O)c2ccccc2F)c(C)c1 [Active ingredient No. 11, 2-Fluoro-2',4',6'-trimethyl-benzophenone] |  |  |  |  |  | anti-inflammatory effect, inhibition rate (ED50), in words (hind paws of male rats): especially high inhibition rate (ED50)
5 | O=C(c1ccccc1)c1ccccc1F [Active ingredient No. 15, 2-fluorobenzophenone] |  |  |  |  |  | anti-inflammatory effect, inhibition rate (ED50), in words (hind paws of male rats): especially high inhibition rate (ED50)
6 | CCCc1ccc(C(=O)c2ccccc2F)cc1 [compound 7] | 15 | 23 | 24.6 | 55.6 |  | 
7 | CCCCc1ccc(C(=O)c2ccccc2F)cc1 [compound 8] | 14.8 | 24 | 38 | 82.6 |  | 
8 | CCCCCc1ccc(C(=O)c2ccccc2F)cc1 [compound 9] | 15.3 | 14.6 | 25.3 | 74.6 |  | 
9 | Cc1ccc(C(=O)c2ccccc2F)c(C)c1 [compound 10] | 20.3 | 18.5 | 29.7 | 47.5 |  | 
10 | Cc1cc(C)c(C(=O)c2ccccc2F)c(C)c1 [compound 11] | 13.9 | 16.5 | 42.9 | 62.3 |  | 
11 | CCc1cc(CC)c(C(=O)c2ccccc2)c(CC)c1 [compound 13] | 15.8 | 14.3 | 20.5 | 38.9 |  | 
12 | Cc1cc(C)c(C(=O)c2ccc(Cl)cc2)c(C)c1 [compound 14] | 19.2 | 18.1 | 23.3 | 37.3 |  | 
13 | O=C(c1ccccc1)c1ccccc1F [compound 15] | 18.5 | 23.2 | 26.5 | 61.4 |  | 
14 | CCCc1ccc(CCC)c(C(=O)c2ccccc2)c1 [compound 16] | 12.4 | 8.6 | 21.5 | 45.2 |  | 
15 | CCCCc1ccc(CCCC)c(C(=O)c2ccc(C)cc2)c1 [compound 17] | 10.3 | 17.3 | 19.5 | 36.3 |  | 
16 | Cc1cc(C)c(C(=O)c2ccccc2)c(C)c1 [compound 30] |  |  |  |  |  | Blood platelet agg. inh.: percentage inhibition of platelet aggregation (platelet; [1]): 8.7%
17 | O=C(c1ccccc1)c1ccc(C2CCCCC2)cc1 [compound 73] |  |  |  |  |  | Blood platelet agg. inh.: percentage inhibition of platelet aggregation (platelet; [1]): 20.3%

Row | Compound | inhibition in vivo at 100 mg/kg (male mice) [%] | inhibition at 100 µM (platelet; [1]) [%] | inhibition in vivo at 100 mg/kg (thrombus; [2]) [%] | inhibition in vivo at 100 mg/kg (hind paws of male rats; [3]) [%] | inhibition in vivo at 100 mg/kg (hind paws of male rats; [4]) [%] | other results
18 | COc1ccc(C(=O)c2ccccc2F)cc1 [compound 116] |  |  |  |  | 59.8 | 
19 | CC(C)c1ccc(C(=O)c2ccccc2F)cc1 [compound 117] |  |  |  |  | 53.3 | 
20 | CC(C)Cc1ccc(C(=O)c2ccccc2F)cc1 [compound 118] |  |  |  |  | 32.7 | 
21 | CCC(C)c1ccc(C(=O)c2ccccc2F)cc1 (stereo not drawn) [compound 119] |  |  |  |  | 60.7 | 
22 | CC(C)(C)c1ccc(C(=O)c2ccccc2F)cc1 [compound 120] |  |  |  |  | 38.3 | 
23 | CCC(C)(C)c1ccc(C(=O)c2ccccc2F)cc1 [compound 122] |  |  |  |  | 39.3 | 
24 | CCCCc1ccc(C(=O)c2cccc(F)c2)cc1 [compound 123] |  |  |  |  | 38.3 | 
25 | CCCCCc1ccc(C(=O)c2cccc(F)c2)cc1 [compound 124] |  |  |  |  | 23.5 | 
26 | Cc1cc(C)c(C(=O)c2cccc(F)c2)c(C)c1 [compound 125] |  |  |  |  | 18.1 | 
27 | Cc1ccc(C(=O)c2cccc(F)c2)c(C)c1 [compound 126] |  |  |  |  | 27.7 | 
28 | CCCCc1ccc(C(=O)c2ccc(F)cc2)cc1 [compound 127] |  |  |  |  | 58.8 | 
29 | CCCCCc1ccc(C(=O)c2ccc(F)cc2)cc1 [compound 128] |  |  |  |  | 33.6 | 
30 | CCCCCCCCc1ccc(C(=O)c2ccc(F)cc2)cc1 [compound 129] |  |  |  |  | 38.6 | 
31 | Cc1ccc(C(=O)c2ccc(F)cc2)c(C)c1 [compound 130] |  |  |  |  | 37.8 | 
32 | Cc1cc(C)c(C(=O)c2ccc(F)cc2)c(C)c1 [compound 131] |  |  |  |  | 33.6 | 
33 | CCCc1ccc(C(=O)c2ccccc2Cl)cc1 [compound 132] |  |  |  |  | 14.9 | 
